# Entries after “also recorded” stand apart in the source; their conditions may differ. Counter-ions that a name gives are not always drawn.
# Tests used:
# [1] = test system: cholesterol biosynthesis in immortal human hepatocyte cell line HepG2; assay: Metabolic labeling of immortal human hepatocytes (HepG2) with [3H] acetate, HPLC sterol analysis; type: cell-based; conditions: 100 μM inhibitor, HepG2 cells, [3H] acetate labeling, radiodetector HPLC; for quantity of radiolabelled cholesterol synthesized (inhibition of cholesterol biosynthesis): FIG. 3
# Experimental: In accordance with the invention goal, the effect of the novel derivatives of pyridylethanol (phenylethyl) amine as ligands of sigma receptors on inhibition of cholesterol biosynthesis was assessed. An ex vivo method of metabolic labeling of immortal human hepatocytes was employed. The radioactively labelled early precursor of cholesterol [^3H] acetate was added to cells with or without addition of sigma ligands. Two independent experiments of metabolic labeling and sterol analysis were performed. […] The inhibitory effect on cholesterol biosynthesis of our novel ligands of sigma receptors BK-31.2 HBr, BK-33.2HBr, BK-35.2HBr and BK-38.2HBr), prepared according to examples 1 to 4, was evaluated. An ex vivo method of metabolic labeling of immortal human hepatocytes was applied. The radiolabel led precursor of cholesterol biosynthesis [^3H] acetate was added to the cells with or without the addition of sigma ligands. Finally, two independent experiments of metabolic labeling and sterol analysis were performed for each compound. The immortal human hepatocyte cell line HepG2 was split to the 75 cm^2 flasks in the ratio 1:2, two flasks for each condition. The cells were cultured in the DMEM culture ([…] 0.0626 […] 0.042 […]-thryptophan 0.016 g/l, L-[…]Na.2H2O 0.10379 […], choline chloride 0.004 g/l, folic acid 0.004 g/l, myo-inositol 0.0072 g/l, niacinamide 0.004 g/l, D-pantothenic acid 0.004 g/l, pyridoxal.HCl 0.004 g/l, riboflavin 0.0004 g/l, thiamine.HCl 0.004 g/l, calcium chloride.2H2O 0.265 g/l, ferric nitrate.9H2O 0.0001 g/l, magnesium sulfate [anhydride] 0.09767 g/l, potassium chloride 0.4 g/l, sodium chloride 6.4 g/l, monobasic sodium phosphate [anhydride] 0.109 g/l, glucose 4.5 g/l and phenol red, Na 0.0159 g/l) with 5% bovine serum and 1% L-glutamine. After 24 hours a medium with 100 μM ligands of sigma receptors (BK-31.2HBr, BK-33.2HBr, BK-35.2HBr and BK-38.2HBr) was added to the cells. The known inhibitors of cholesterol biosynthesis, 100 μM lovastatin or pravastatin, both the inhibitors of HMG-CoA reductase, and 100 μM fluconazole that inhibits enzymes of the P450 family to which lanosterol 14α-[…] (CYP51) also belongs, were used as positive controls. The cells grown in normal media without the addition of inhibitors served as negative control. The medium was exchanged after 24 hours. After 48 hours, 40 μCi [^3H] acetate was added per 1 ml of the medium (400 μCi per flask). The medium was aspirated after 24 hours, and the cells were tryptinized with 2 ml of trypsine. The cells were collected in 4 ml of the medium, centrifuged, and the cell pellet resuspended in distilled water (1 ml per flask). The cells were homogenized by freeze-thawing. Sterols were extracted from the homogenate. Protein concentration was determined in the homogenate with the Bio-rad reagent according to the recommended protocol of the producer. The homogenate was transferred into glass vials with an inert cover. 3 ml of the extraction solution (75% n-heptane:25% isopropanol (vol/vol)) was added. The closed vials were shaken vigorously on a shaker in the dark room for 2 hours. […] Until analysis, the samples were stored in the HPLC-grade solvent in dark and cold. The dried extracts were dissolved in 250 μl n-heptane. 100 μl aliquots were injected into the normal phase column (ChromSpher Si, 150 mm×3 mm, particle size 5 μm) with the mobile phase 99.5% n-heptane:0.5% isopropanol at flow rate 1 ml/min and room temperature. […] For determination of sterol after metabolic labeling, a radiodetector with the flow-through cell was used. […] G. Byskov, Rikhospitalitet, University of Copenhagen). The results were normalized according to the quantity of internal standard ergosterol and the concentration of proteins in the homogenate. The results represent the average value of two measurements with appropriate standard deviation.
smiles,measurement,setting,value
"CCCN(CCc1ccccc1)CC(O)c1cccnc1 (stereo not drawn) (as salt: hydrobromid) [BK-31.2HBr, 1-(3-pyridyl)-2-(N-(2-phenylethyl)-N-propylamino)ethanol dihydrobromide]",melting point,,113 to 120 °C
"CCCN(CCc1ccccc1)CC(O)c1cccnc1 (stereo not drawn) [BK-31.2HBr, 1-(3-pyridyl)-2-(N-(2-phenylethyl)-N-propylamino)ethanol dihydrobromide]",quantity of radiolabelled cholesterol synthesized (inhibition of cholesterol biosynthesis),[1],significantly lowered amounts of cholesterol
"CN(CCc1ccc(Cl)c(Cl)c1)CC(O)c1cccnc1 (stereo not drawn) [BK-33.2HBr, 1-(3-pyridyl)-2-(N-(2-(3,4-dichlorophenyl)ethyl)-N-methylamino)ethanol dihydrobromide]",quantity of radiolabelled cholesterol synthesized (inhibition of cholesterol biosynthesis),[1],significantly lowered amounts of cholesterol
"CCCN(CCc1ccc(Cl)c(Cl)c1)CC(O)c1cccnc1 (stereo not drawn) [BK-35.2HBr, 1-(3-pyridyl)-2-(N-(2-(3,4-dichlorophenyl)ethyl)-N-propylamino)ethanol dihydrobromide]",quantity of radiolabelled cholesterol synthesized (inhibition of cholesterol biosynthesis),[1]; dihydrobromide,most pronounced; also recorded: cholesterol quantity is diminished; also recorded: significantly lowered amounts of cholesterol; also recorded: greatest lowering of cholesterol
same,quantity of radiolabelled cholesterol synthesized (inhibition of cholesterol biosynthesis),"[1]; listed as BK 35.2HBr, dihydrobromide",highest potential to inhibit cholesterol biosynthesis
same,amount of intermediate sterols representing lanosterol or T-MAS (accumulation of early postsqualene intermediates),"[1]; FIG. 4, dihydrobromide",ten-fold increase; also recorded: increased
"CN(CCc1ccc(Cl)c(Cl)c1)CC(O)c1ccncc1 (stereo not drawn) [BK-38.2HBr, 1-(4-pyridyl)-2-(N-(2-(3,4-dichlorophenyl)ethyl)-N-methylamino)ethanol dihydrobromide]",quantity of radiolabelled cholesterol synthesized (inhibition of cholesterol biosynthesis),[1],significantly lowered amounts of cholesterol
"OC(Cn1cncn1)(Cn1cncn1)c1ccc(F)cc1F [Fluconazole, fluconazole, reference compound]",quantity of radiolabelled cholesterol synthesized (inhibition of cholesterol biosynthesis),[1],weaker inhibitor of cholesterol biosynthesis
"CC[C@H](C)C(=O)O[C@H]1C[C@@H](C)C=C2C=C[C@H](C)[C@H](CC[C@@H]3C[C@@H](O)CC(=O)O3)[C@H]21 [Lovastatin, lovastatin, reference compound]",quantity of radiolabelled cholesterol synthesized (inhibition of cholesterol biosynthesis),[1],completely blocked the biosynthesis

# Source: patent publication US7560474B2, “Derivatives of pyridilethanol (phenylethyl) amines as inhibitors of cholesterol biosynthesis, process for their preparation and pharmaceutical compositions containing them” (Lek Pharmaceuticals d.d., priority 2002, dated 2009)
